# Source: US20250351832A1, “PHYTOCHEMICALS AS BIOPESTICIDES AND BIOSTIMULANTS” (KAY BEE BIO ORGANICS PVT. LTD., priority 2024, published 2025)
# Like-named read-outs stand apart in the source and are kept apart here.
# Assays:
# Alternaria alternata [1] = assay: In vitro poisoned food technique against fungus (Ex. 20); assay type: cell-based
# Spodoptera litura [2] = conditions: in vivo
# chili seedlings = assay: Response of chili plants, greenhouse growth (Ex. 31); assay type: in vivo
# Helicoverpa armigera = conditions: in vivo
# Spodoptera litura [3] = conditions: in vivo; remark: listed apart in the source
# tomato seedlings = assay: Response of tomato plants, greenhouse growth (Ex. 30); assay type: in vivo; conditions: tomato seedlings, dose 1 ml/gm/lit; for Plant Height 5th Day / Stem Girth 5th Day / CCI 5th Day: 5th day after application; for Plant Height 10th Day / Stem Girth 10th Day / CCI 10th Day: 10th day after application; for Plant Height % Increase over pre on 10th Day / Stem Girth % Increase over pre on 10th Day / CCI % Increase over pre on 10th Day / Root Length (cm) 10th Day / Root Length % Increase over control: 10th day; for Root Length % Increase over control: vs water control
# [4] = cited from earlier work; for Phytotonic Effect: Table 13, effect on plants, descriptive
# Thrips [5] = conditions: in vivo
# Alternaria alternata [6] = assay: Alternaria leaf spot/blight on inoculated tomato plants (Ex. 28); assay type: in vivo
# Aphid [7] = assay: whole plant or invertebrate; conditions: 48 h
# Spodoptera litura [8] = assay: whole plant or invertebrate; conditions: 72 h
# Aphid [9] = conditions: in vivo
# Thrips [10] = assay: whole plant or invertebrate; conditions: in Gossypium hirsutum, 48 h
# [11] = test system: Pomegranate Bacterial Leaf Blight (BLB-Xanthomonas axonopodis pv Punicae); assay: Field trial, pomegranate bacterial leaf blight (Ex. 99); conditions: dose 0.30%
# [12] = test system: Cotton Bacterial Leaf Blight (BLB-Xanthomonas citri pv. Malvacearum); assay: Field trial, cotton bacterial leaf blight, Embodiment 12 (Ex. 116); conditions: dose 0.30%
# [13] = test system: Citrus Canker (Xanthomonas citri pv. Citri); assay: Field trial, citrus canker (Ex. 117); conditions: dose 0.30%
# Mealy Bug [14] = conditions: in vivo
# Mealy Bug [15] = conditions: in vivo; remark: listed apart in the source
# [16] = poisoned food technique, PDA medium, dose 1 ml/gm/lit., after seven days
# [17] = chili seedlings, dose 1 ml/gm/lit, 5th day after application
# [18] = chili seedlings, dose 1 ml/gm/lit, 10th day
# [19] = chili seedlings, dose 1 ml/gm/lit, 10th day after application
# [20] = Table 13, descriptive, no test described
# [21] = read-out: % Corrected Mortality at 48 Hrs.
# [22] = read-out: % Mortality at 48 Hrs.
# [23] = read-out: % Corrected Mortality at 72 Hrs.
# [24] = read-out: % Mortality at 72 Hrs.
smiles,measurement,setting,value
COc1cc(CNC(=O)CCCC/C=C/C(C)C)ccc1O [Capsaicin],inhibition of growth at 1 mL or g/L,Alternaria alternata [1]; […],42.6%
same,Mean colony Diameter (mm),Alternaria alternata [1]; [16],50.50 mm
same,Total No. of dead insect at 72 Hrs.,Spodoptera litura [2],4.25
same,CCI 5th Day,chili seedlings; [17],12.21
same,Plant Height (cm) 5th Day,chili seedlings; [17],6.30 cm
same,CCI % Increase over pre on 10th Day,chili seedlings; [18],46.96%
same,Plant Height % Increase over pre on 10th Day,chili seedlings; [18],43.26%
same,Root Lenght (cm) 10th Day,chili seedlings; [18],2.99 cm
same,Stem Girth % Increase over pre on 10th Day,chili seedlings; [18],43.31%
same,CCI 10th Day,chili seedlings; [19],13.52
same,Plant Height (cm) 10th Day,chili seedlings; [19],6.59 cm
same,Root Lenght % Increase over control,"chili seedlings; chili seedlings, dose 1 ml/gm/lit, 10th day, vs water control",9.09%
same,Total No. of dead insect at 72 Hrs.,Helicoverpa armigera,4.50
same,% Corrected Mortality at 72 Hrs.,Spodoptera litura [3],44.74%
same,% Mortality at 72 Hrs.,Spodoptera litura [3],47.50%
same,Plant Height 5th Day,tomato seedlings,7.11 cm
same,Stem Girth 5th Day,tomato seedlings,1.92 mm
same,Plant Height 10th Day,tomato seedlings,7.86 cm
same,Stem Girth 10th Day,tomato seedlings,2.01 mm
same,Plant Height % Increase over pre on 10th Day,tomato seedlings,29.28%
same,Stem Girth % Increase over pre on 10th Day,tomato seedlings,58.60%
same,CCI 5th Day,tomato seedlings,14.66
same,CCI % Increase over pre on 10th Day,tomato seedlings,21.99%
same,Root Length (cm) 10th Day,tomato seedlings,3.95 cm
same,CCI 10th Day,tomato seedlings,15.42
same,Root Length % Increase over control,tomato seedlings,18.74%
same,Acaricidal Activity - Mode of action,[4]; [20],Acts as a mite feeding
same,Antifungal Activity - Mode of action,[4]; [20],Inhibits the hyphae
same,Antioxidant Activity - Mode of action,[4]; [20],Showed antioxidant
same,Bactericidal Activity - Mode of action,[4]; [20],Inhibition of bacterial
same,Insecticidal Activities - Mode of action,[4]; [20],Fumigant and larvicidal
same,Virucidal Activity - Mode of action,[4]; [20],Inhibited viral replication
same,Phytotonic Effect,[4],Increase
same,% Corrected Mortality at 48 Hrs.,Thrips [5],55.56%
same,% Mortality at 48 Hrs.,Thrips [5],60.00%
same,% Disease reduction over Control,Alternaria alternata [6]; in vivo,51.24%
same,mortality at 1 mL or g/L,Aphid [7]; [21],55.9%
same,mortality at 1 mL or g/L,Aphid [7]; [22],62.5%
same,mortality at 1 mL or g/L,Spodoptera litura [8]; [23],39.5%
same,mortality at 1 mL or g/L,Spodoptera litura [8]; [24],42.5%
same,% Corrected Mortality at 48 Hrs.,Aphid [9],57.14%
same,mortality at 1 mL or g/L,Thrips [10]; [21],57.1%
same,mortality at 1 mL or g/L,Thrips [10]; [22],62.5%
[Cu+2].[OH-].[OH-] [Copper Hydroxide],% Disease reduction over Control,[11],61.56%
same,BLB severity 1st spray 3rd Day,[11],35.45
same,BLB severity 1st spray 5th day,[11],33.15
same,BLB severity 2nd spray 3rd Day,[11],31.2
same,BLB severity 2nd spray 5th Day,[11],30.75
same,% Increase in yield over control,[11]; pomegranate,16.42%
same,Yield,[11]; pomegranate,11.13 t/ha
same,cotton BLB severity,"[12]; 1st spray, 5th Day",31.00
same,cotton BLB severity,"[12]; 1st spray, 10th Day",29.75
same,cotton BLB severity,"[12]; 2nd spray, 5th Day",27.45
same,cotton BLB severity,"[12]; 2nd spray, 10th Day",26.45
same,% Increase over control,[12]; cotton yield,7.89%
same,% Disease reduction over Control,[12]; cotton,62.32%
same,Yield,[12]; cotton,19.00 qtl/ha
same,% Disease reduction over Control,[13],70.60%
same,"Citrus Canker severity, 1st spray 5rd Day","[13]; 1st spray, 5rd Day",37.65
same,"Citrus Canker severity, 1st spray 10th day","[13]; 1st spray, 10th day",33.15
same,"Citrus Canker severity, 2nd spray 5rd day","[13]; 2nd spray, 5rd day",28.10
same,"Citrus Canker severity, 2nd spray 10th Day","[13]; 2nd spray, 10th Day",24.10
same,% Increase in yield over control,[13]; citrus,13.98%
same,Yield (t/ha),[13]; citrus,9.30 t/ha
same,"Citrus Canker severity, Pre spray",[13]; pre spray (baseline),41.45
CC(C)c1ccc(C=O)cc1 [Cuminaldehyde],Mean colony Diameter (mm),Alternaria alternata [1]; [16],51.50 mm
same,inhibition of growth at 1 mL or g/L,"Alternaria alternata [1]; poisoned food technique, PDA medium, dose 1 ml/gm/lit., after seven days, vs untreated control, read-out: % Inhibition of growth",41.5%
same,Total No. of dead insect at 72 Hrs.,Spodoptera litura [2],5.25
same,% Corrected Mortality at 48 Hrs.,Mealy Bug [14],50.00%
same,CCI Pre,chili seedlings,10.29
same,Plant Height (cm) Pre,chili seedlings,4.27 cm
same,CCI 5th Day,chili seedlings; 120 h,12.10
same,Plant Height (cm) 5th Day,chili seedlings; 120 h,5.77 cm
same,CCI 10th Day,chili seedlings; 240 h,13.9
same,Plant Height (cm) 10th Day,chili seedlings; 240 h,6.40 cm
same,Root Lenght % Increase over control,chili seedlings; 240 h,13.94%
same,CCI % Increase over pre on 10th Day,chili seedlings; [18],35.08%
same,Plant Height % Increase over pre on 10th Day,chili seedlings; [18],50.00%
same,Root Lenght (cm) 10th Day,chili seedlings; [18],3.12 cm
same,Stem Girth % Increase over pre on 10th Day,chili seedlings; [18],40.41%
same,Total No. of dead insect at 72 Hrs.,Helicoverpa armigera,3.75
same,% Corrected Mortality at 48 Hrs.,Mealy Bug [15],50.00%
same,% Corrected Mortality at 72 Hrs.,Spodoptera litura [3],52.63%
same,% Mortality at 72 Hrs.,Spodoptera litura [3],55.00%
same,Plant Height 5th Day,tomato seedlings,6.62 cm
same,Stem Girth 5th Day,tomato seedlings,1.77 mm
same,Plant Height 10th Day,tomato seedlings,7.33 cm
same,Stem Girth 10th Day,tomato seedlings,2.08 mm
same,Plant Height % Increase over pre on 10th Day,tomato seedlings,31.36%
same,Stem Girth % Increase over pre on 10th Day,tomato seedlings,64.12%
same,CCI 5th Day,tomato seedlings,13.64
same,CCI % Increase over pre on 10th Day,tomato seedlings,16.83%
same,Root Length (cm) 10th Day,tomato seedlings,3.81 cm
same,CCI 10th Day,tomato seedlings,14.65
same,Root Length % Increase over control,tomato seedlings,14.59%
same,Antifungal Activity - Mode of action,[4]; [20],Mycelial growth inhibition
same,Antioxidant Activity - Mode of action,[4]; [20],Increase in reactive oxygen
same,Bactericidal Activity - Mode of action,[4]; [20],Great antimicrobial effects
same,Insecticidal Activities - Mode of action,[4]; [20],Acute Toxicity Effects
same,Nematicidal Activity - Mode of action,[4]; [20],Efficient hatching inhibitor
same,Phytotonic Effect,[4],Boost plant
same,% Corrected Mortality at 48 Hrs.,Thrips [5],33.33%
same,% Mortality at 48 Hrs.,Thrips [5],40.00%
same,% Disease reduction over Control,"Alternaria alternata [6]; tomato plants, Alternaria alternata, after 7 days, dose 1 ml/gm/lit",52.89%
same,mortality at 1 mL or g/L,Aphid [7]; [21],47.1%
same,mortality at 1 mL or g/L,Aphid [7]; [22],55%
same,mortality at 1 mL or g/L,Spodoptera litura [8]; [23],50%
same,mortality at 1 mL or g/L,Spodoptera litura [8]; [24],52.5%
same,% Corrected Mortality at 48 Hrs.,Aphid [9],45.71%
same,% Mortality at 48 Hrs.,Aphid [9],52.50%
same,mortality at 1 mL or g/L,Thrips [10]; [21],34.3%
same,mortality at 1 mL or g/L,Thrips [10]; [22],42.5%
